{
  "source": "paper PMC9796789",
  "about": "(The Febs Journal, 2022)",
  "molecules": {"B1": {"name": "CrtE from Synechocystis sp. PCC 6803 with a C-terminal His-tag (SyCrtE-His) (enzyme)", "chain": "MVAQQTRTDFDLAQYLQVKKGVVEAALDSSLAIARPEKIYEAMRYSLLAGGKRLRPILCITACELCGGDEALALPTACALEMIHTMSLIHDDLPSMDNDDFRRGKPTNHKVYGEDIAILAGDGLLAYAFEYVVTHTPQADPQALLQVIARLGRTVGAAGLVGGQVLDLESEGRTDITPETLTFIHTHKTGALLEASVLTGAILAGATGEQQQRLARYAQNIGLAFQVVDDILDITATQEELGKTAGKDVKAQKATYPSLLGLEASRAQAQSLIDQAIVALEPFGPSAEPLQAIAEYIVARKY"}},
  "key": {"[1]": {"target": "T1, SyCrtE (Synechocystis sp. PCC 6803, UniProt P72683)", "T1 sequence (P72683 1-302)": "B1 chain", "assay": "LC-MS of prenyl pyrophosphate products", "type": "biochemical", "conditions": "50 µM DMAPP, 100 µM IPP, 10 mM MgCl2, 25 mM MOPSO pH 7.2, 30 °C, 2 h"}, "[2]": {"target": "T2, SeCrtE (Synechococcus elongatus, UniProt Q31Q61)", "T2 sequence (Q31Q61 1-301)": "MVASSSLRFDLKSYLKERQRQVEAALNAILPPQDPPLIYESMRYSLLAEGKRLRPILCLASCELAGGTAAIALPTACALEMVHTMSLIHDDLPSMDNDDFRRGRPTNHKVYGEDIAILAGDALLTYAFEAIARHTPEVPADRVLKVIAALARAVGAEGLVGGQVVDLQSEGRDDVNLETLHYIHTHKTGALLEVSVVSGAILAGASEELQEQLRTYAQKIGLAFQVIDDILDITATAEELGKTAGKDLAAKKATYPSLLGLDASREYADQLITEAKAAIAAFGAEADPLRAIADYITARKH", "assay": "LC-MS of prenyl pyrophosphate products", "type": "biochemical", "conditions": "50 µM DMAPP, 100 µM IPP, 10 mM MgCl2, 25 mM MOPSO pH 7.2, 30 °C, 2 h"}, "[3]": {"target": "CrtE from Synechococcus elongatus sp. PCC 7942 with a C-terminal His-tag (SeCrtE-His) (Synechococcus elongatus sp. PCC 7942)", "assay": "crystal structure"}, "[4]": {"target": "the molecule itself", "assay": "crystal structure"}},
  "data": [
    {"molecule": "CC(C)=CCC/C(C)=C/CC/C(C)=C/CC/C(C)=C/COP(=O)(O)OP(=O)(O)O", "note": "[GGPP]", "values": [
      {"measurement": "LC-MS of prenyl pyrophosphate products", "setting": "[1]", "result": "Under identical experimental conditions, SyCrtE produced GGPP, GPP and FPP"},
      {"measurement": "LC-MS of prenyl pyrophosphate products", "setting": "[2]", "result": "For SeCrtE, only GGPP formation was detected"}
    ]},
    {"molecule": "CrtE from Synechococcus elongatus sp. PCC 7942 with a C-terminal His-tag (SeCrtE-His) (enzyme)", "values": [
      {"measurement": "stoichiometry N", "setting": "[3]", "result": 2}
    ]},
    {"molecule": "B1", "values": [
      {"measurement": "stoichiometry N", "setting": "[4]", "result": 2}
    ]}
  ]
}
